The NIST ThermoML archive (doi:10.1016/j.jct.2011.02.006)

Columns and labels:
[1] = for viscosity / mass density: 101.33 kPa, Liquid; for viscosity: Falling or rolling sphere viscometry; for mass density: Vibrating tube method
[2] = Molar enthalpy of transition or fusion; conditions: Crystal; DSC

CCCC[n+]1ccc2ccccc2c1.O=S(=O)([N-]S(=O)(=O)C(F)(F)F)C(F)(F)F [2-butylisoquinolinium bis[(trifluoromethyl)sulfonyl]amide]
[1]
Conditions | mass density [kg/m3] | viscosity [mPa·s]
323.2 K | 1413.21 | 71.07
328.2 K | 1408.78 | 56.23
333.2 K | 1404.32 | 45.14
338.2 K | 1399.88 | 38.46
343.2 K | 1395.47 | 32.08
348.2 K | 1391.06 | 27.1
353.2 K | 1386.66 | 23.02
358.2 K | 1382.26 | 19.87
363.2 K | 1377.88 | 16.14

[1], DTA
Conditions | Glass transition temperature [°C] | Normal melting temperature [°C]
Crystal | – | 48
Glass | -55.2 | –

Conditions | Molar enthalpy of transition or fusion [kcal/mol]
[2] | 11
